What is called Km is the concentration of substrate that gives half-maximal velocity.

Each structure is given as a SMILES string.

One experiment concerns T1, SeCamS.
T1 construct: 6xHis-tagged, E. coli BL21(DE3), Ni-NTA purified
In words: GC-MS of hexane-extracted monoterpene products. The format is biochemical, Solanum elaeagnifolium. As to conditions: 20 mM MOPS pH 7.0, 20 mM MgCl2, 0.02 mM MnCl2, 30 °C, 1 h; read-out: KM^app. An excerpt: GC-MS of hexane-extracted monoterpene products on SeCamS

The next experiment concerns the target T2, PtPinS (Pinus taeda, UniProt Q84KL3).
T2 construct: gene PT30; lacking the transit peptide, 6xHis-tagged, E. coli BL21(DE3), Ni-NTA purified
T2 sequence (Q84KL3 49-628): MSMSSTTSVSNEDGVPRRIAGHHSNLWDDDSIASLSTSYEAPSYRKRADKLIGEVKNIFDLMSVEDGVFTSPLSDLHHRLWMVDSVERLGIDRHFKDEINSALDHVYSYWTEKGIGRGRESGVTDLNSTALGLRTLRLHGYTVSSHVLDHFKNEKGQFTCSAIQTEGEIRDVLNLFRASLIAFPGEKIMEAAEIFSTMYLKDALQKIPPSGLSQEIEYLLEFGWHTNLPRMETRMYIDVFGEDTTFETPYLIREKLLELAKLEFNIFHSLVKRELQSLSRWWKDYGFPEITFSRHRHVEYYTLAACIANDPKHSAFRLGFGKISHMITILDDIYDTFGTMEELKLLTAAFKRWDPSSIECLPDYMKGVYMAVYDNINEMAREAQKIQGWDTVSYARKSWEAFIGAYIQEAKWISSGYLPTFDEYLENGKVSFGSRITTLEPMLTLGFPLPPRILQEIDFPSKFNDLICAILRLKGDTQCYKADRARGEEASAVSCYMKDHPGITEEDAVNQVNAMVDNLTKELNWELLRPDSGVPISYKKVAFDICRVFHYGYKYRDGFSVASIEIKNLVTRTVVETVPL
In words: GC-MS product analysis in vitro. In kind it is biochemical. As to conditions: 20 mM MOPS pH 7.0, 20 mM MgCl2, 0.02 mM MnCl2, 30 °C, 1 h.

In the next experiment the target is T3, SpSabS (Salvia pomifera, UniProt A6XH06).
T3 construct: gene SabS1; 6xHis-tagged, E. coli BL21(DE3), Ni-NTA purified
T3 sequence (A6XH06 29-581): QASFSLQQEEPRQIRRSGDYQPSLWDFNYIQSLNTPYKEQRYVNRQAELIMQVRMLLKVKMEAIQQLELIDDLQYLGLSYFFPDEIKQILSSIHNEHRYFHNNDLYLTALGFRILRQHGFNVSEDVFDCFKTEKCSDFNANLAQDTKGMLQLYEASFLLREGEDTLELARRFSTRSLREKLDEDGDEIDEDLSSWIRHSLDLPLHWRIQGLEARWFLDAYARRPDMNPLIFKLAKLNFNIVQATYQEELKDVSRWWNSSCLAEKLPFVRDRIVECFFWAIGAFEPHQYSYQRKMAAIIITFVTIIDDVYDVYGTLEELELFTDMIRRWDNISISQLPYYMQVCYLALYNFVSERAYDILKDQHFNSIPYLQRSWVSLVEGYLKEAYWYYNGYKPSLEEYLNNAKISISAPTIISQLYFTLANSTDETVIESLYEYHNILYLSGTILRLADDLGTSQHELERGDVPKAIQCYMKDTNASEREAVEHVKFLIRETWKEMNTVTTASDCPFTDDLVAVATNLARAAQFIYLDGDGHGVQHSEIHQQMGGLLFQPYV
In words: GC-MS product analysis in vitro. The format is biochemical. To be noted: 20 mM MOPS pH 7.0, 20 mM MgCl2, 0.02 mM MnCl2, 30 °C, 1 h.

`CC(C)=CCC/C(C)=C/COP(=O)(O)OP(=O)(O)O` [GPP]: in the experiment with SeCamS, the Km came out at 18.6 ± 2.77 µM.
For `CC(C)=CCC/C(C)=C\COP(=O)(O)OP(=O)(O)O` [NPP], the “GC-MS product analysis in vitro” value on PtPinS and at SpSabS was “able to utilize NPP in in vitro assays with bacterially expressed enzymes” in each case. In the experiment on SeCamS, the Km was 107 ± 12.5 µM.

For the origin of these results see article PMC6707142, “Orthogonal monoterpenoid biosynthesis in yeast constructed on an isomeric substrate” (Nature Communications, 2019).
